Reference: patent publication US20030092637A1, “Novel compounds” (priority 2000, published 2003)

Tested on: transformed human vascular endothelial cells (ECV cells)
Assay: Cellular growth assay (crystal violet), ECV cells
Type: cell-based
Procedure: Human embryonic lung fibroblasts (HFL-1 cells) and transformed endothelial cells (ECV cells) were obtained. Monolayer cultures were maintained on plastic in Eagle's MEM (Life Technologies, Ltd, Renfrewshire, UK). The medium was supplemented with 10% FCS (In Vitro AB, Stockholm, Sweden), 2 mM L-glutamine (ICN Biochemicals), penicillin (100 units/ml) and streptomycin (100 μg/ml) Cells were regularly checked for mycoplasma using GEN-PROBE Rapid detection system (Skafte & Claesson, Mölndal, Sweden).
In brief, cells were harvested by trypsinisation and seeded into 96-well microculture plates at 3000-5000 cells/well in Ham's F-12 medium (Sigma) supplemented with insulin (10 ng/ml), transferrin (25 ng/ml) and 10% FCS. After 4 h of plating, the cells were serum-starved for 24 h. […] Controls without growth factor and controls with different concentrations of DMSO were included. After 72, 96 and 120 h of growth, cells were fixed in glutaraldehyde, and cell nuclei were stained with crystal violet (Merck, Darmstadt, Germany). After washing and cell lysis for 24 h in 1% Triton X-100, the amount of bound dye was measured at 595 nm in a microplate photometer (Titertek multiscan). Results were corrected for DMSO effects.

## NCCC[C@](N)(C(=O)O)C(F)F [DFMO, α-difluoromethylornithine]
Homo sapiens, Endothelial cell, 5 mM DFMO only, cells dependent on 1 μM spermin
  inhibition at 5000 µM: 5%

## Oc1ccc2cc(O[C@@H]3OC[C@@H](O)[C@H](O)[C@H]3O)ccc2c1 [Xyl-2-Nap-6-OH, 6-hydroxy-2-naphthalenyl-β-D-xylopyranoside]
0.05 mM Xyl-2-Nap-6-OH, untreated cells as reference
  inhibition of growth of ECV cells: 9%
Xyl-2-Nap-6-OH alone (concentration not restated; 0.2 mM in the compared combination)
  inhibition of growth of ECV cells: 31%

## Cc1ccc(C(=O)Nc2ccc(S(=O)(=O)O)c3cc(S(=O)(=O)O)cc(S(=O)(=O)O)c23)cc1NC(=O)c1cccc(NC(=O)Nc2cccc(C(=O)Nc3cc(C(=O)Nc4ccc(S(=O)(=O)O)c5cc(S(=O)(=O)O)cc(S(=O)(=O)O)c45)ccc3C)c2)c1 [suramin]
Homo sapiens, Endothelial cell, 0.2 mM suramin, untreated cells as reference
  inhibition at 200 µM: 20%
